Data as given in patent US20230357313A1, “SERUM RESISTANT BIS-SULFHYDRYL SPECIFIC BIOTINYLATION REAGENT” (Miltenyi Biotec B.V. & Co. KG, priority 2022, published 2023).

Biological target: T1, biotinidase (Homo sapiens, UniProt P43251)
T1 construct: from tissue
T1 sequence (P43251 22-523): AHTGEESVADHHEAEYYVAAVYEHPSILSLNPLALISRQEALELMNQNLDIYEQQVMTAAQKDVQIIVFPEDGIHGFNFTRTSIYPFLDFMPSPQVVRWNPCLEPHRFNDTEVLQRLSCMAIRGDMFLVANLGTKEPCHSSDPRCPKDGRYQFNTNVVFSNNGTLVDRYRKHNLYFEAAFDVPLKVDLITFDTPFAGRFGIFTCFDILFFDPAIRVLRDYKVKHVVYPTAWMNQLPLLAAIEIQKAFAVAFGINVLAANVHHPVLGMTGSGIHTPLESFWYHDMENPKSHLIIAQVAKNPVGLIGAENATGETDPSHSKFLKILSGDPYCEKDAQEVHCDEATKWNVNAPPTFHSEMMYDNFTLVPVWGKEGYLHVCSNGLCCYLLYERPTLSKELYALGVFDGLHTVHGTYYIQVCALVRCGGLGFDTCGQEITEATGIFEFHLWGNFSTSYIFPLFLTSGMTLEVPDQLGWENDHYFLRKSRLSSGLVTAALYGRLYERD
Assay: Biotinidase inhibitor experiment: MS9 anti-CD33 Fab in human serum with or without inhibitor, LC-MS
Format: biochemical
Details: 1 mM in human serum, 4 h at 37° C.
Description: To verify that biotinidase, an enzyme found in the human body amongst other in human serum, causes the cleavage of the biotinamide bond an experiment was performed with a biotinidase inhibitor ((+) Biotin 4 Amidobenzoic Acid, Cayman, CAS. 102418-74-6). Therefore (+) Biotin 4 Amidobenzoic Acid was added at a concentration of 1 mM into the pre-incubation mix containing the human serum. As control no inhibitor was added. The anti-CD33 Fab with MS9 was pre-incubated for 4 hours at 37° C. Subsequently after the incubation the samples were purified via an IgG-CHI Affinity matrix as previously described.
FIG. 5A and FIG. 5B show biotinidase as causative agent for instability of linker in non-heat inactivated serum. Biotinylated (MS9) anti-CD33 FAbs were incubated in freshly prepared human serum for 4 h at 37° C. in the presence (left panel) or absence (right panel) of 1 mM Biotin 4-amidobenzoic acid.

O=C(CCCC[C@@H]1SC[C@@H]2NC(=O)N[C@@H]21)Nc1ccc(C(=O)[O-])cc1.[Na+] [Biotin 4-amidobenzoic acid, (+) Biotin 4 Amidobenzoic Acid]
effect of biotinidase inhibitor on biotinamide bond degradation: protects the biotinamide bond from degradation
